Patent US20250332173A1, “COMPOUNDS AND METHODS FOR MODULATING NUCLEIC ACID SPLICING” (REMIX THERAPEUTICS INC., priority 2021, published 2025)
Like-named read-outs stand apart in the source and are kept apart here.

Key:
Assay type in all cases: cell-based, human
MYB mRNA = assay: RT-qPCR splicing assay, MYB canonical junction (CJ) and alternative junction (AJ) mRNA; conditions: Homo sapiens; for AC50: increase in MYB alternative junction (AJ) mRNA, read-out: MYB AJ AC50
Procedure, shortened: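 A673 cells (normalized to PPIA) or K562 cells (normalized to GAPDH or GUSB) were treated 24 h at 37 °C with an 11-point 3-fold dilution series, top 10 uM, DMSO ≤0.25%. Cell lysates went to one-step RT-qPCR measuring canonical- and alternative-junction MYB or HTT transcripts.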

HTT = assay: HiBiT protein abundance assay, HTT HiBiT K562 cell line; conditions: 24 hours, top dose 10 μM
Procedure, shortened: (§1)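 K562 knock-in lines with endogenous HiBiT-tagged target, 10,000 cells/well in IMDM + FBS, treated 24 h at 37° C with 10-point 3-fold dilutions (top 10 μM final; DMSO ≤0.25%). Lytic Nano-Glo HiBiT luminescence normalized to untagged K562 baseline and DMSO controls; IC50 = concentration giving 50% abundance via four-parameter fit.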

MYB = assay: HiBiT protein abundance assay, MYB HiBiT K562 cell line; conditions: 24 hours, top dose 10 μM
Procedure, shortened: as §1

[1] = canonical junction qPCR panel, Table 5, read-out: MYB (decrease in CJ mRNA levels, IC50)
[2] = decrease in MYB canonical junction (CJ) mRNA, RT-qPCR, read-out: MYB CJ IC50
[3] = HiBiT K562 cell line, read-out: Effect on protein abundance, HTT (IC50 category)
[4] = HiBiT K562 cell line, read-out: Effect on protein abundance, MYB (IC50 category)
[5] = Table 5 panel, canonical junction qPCR, compound concentration having 50% response in CJ decrease, read-out: MYB IC50 (decrease in CJ mRNA levels)

| SMILES | IC50 (MYB mRNA; [1]) | IC50 (MYB mRNA; [2]) | AC50 (MYB mRNA; RT-qPCR) | IC50 (HTT; [3]) | IC50 (MYB; [4]) | IC50 (MYB mRNA; [5]) | IC50 (HTT; HiBiT lytic detection, modified K562 cells, read-out: Effect on protein abundance, HTT (IC50)) | IC50 (MYB; HiBiT lytic detection, modified K562 cells, read-out: Effect on protein abundance, MYB (IC50)) |
| --- | --- | --- | --- | --- | --- | --- | --- | --- |
| Cc1c(O)c(-c2ncc3c(=O)n(C4CCNC4)ccc3n2)cc2cn(C)nc12 (stereo in doubt) [Compound 1440, (6S)-2-(6-hydroxy-2,7-dimethyl-indazol-5-yl)-6-pyrrolidin-3-yl-pyrido[4,3-d]pyrimidin-5-one] | 100 to 1000 nM | 100 to 1000 nM | 100 to 1000 nM | 1000 to 10000 nM | 100 to 1000 nM |  |  |  |
| Cc1cn2cc(-c3cc(O)c4c(=O)n(C5CCNCC5)ccc4n3)cc(F)c2n1 [Compound 1448] | 100 to 1000 nM | 100 to 1000 nM | 100 to 1000 nM | 100 to 1000 nM | 100 to 1000 nM |  |  |  |
| Cn1cc2cc(-c3ncc4c(=O)n(C5CCNC5)ccc4n3)c(O)c(F)c2n1 (centres unmarked) [Compound 1223] |  | 100 to 1000 nM | 100 to 1000 nM | 1000 to 10000 nM | 100 to 1000 nM | 100 to 1000 nM |  |  |
| Cc1c(O)c(-c2ncc3c(=O)n([C@@H]4C[C@H]5C[C@@H]4CN5)ccc3n2)cc2cn(C)nc12 (stereo in doubt) [Compound 1446, 6-[(1R,4R,5R)-2-azabicyclo[2.2.1]heptan-5-yl]-2-(6-hydroxy-2,7-dimethyl-indazol-5-yl)pyrido[4,3-d]pyrimidin-5-one] | 1000 to 10000 nM | 1000 to 10000 nM | 1000 to 10000 nM | > 10000 nM | 1000 to 10000 nM |  |  |  |
| Cc1c(O)c(-c2ccc3c(=O)n(C4CC(C)NC(C)C4)ccc3n2)cc2cn(C)nc12 (centres unmarked) [Compound 1447, 6-(2,6-dimethyl-4-piperidyl)-2-(6-hydroxy-2,7-dimethyl-indazol-5-yl)-1,6-naphthyridin-5-one] | 100 to 1000 nM | 100 to 1000 nM | 100 to 1000 nM | 100 to 1000 nM | < 100 nM |  |  |  |
| Cc1cn2cc(-c3ccc4c(=O)n(C5CCNCC5)ccc4n3)nc(C)c2n1 [Compound 1238, 2-(2,8-dimethylimidazo[1,2-a]pyrazin-6-yl)-6-(piperidin-4-yl)-1,6-naphthyridin-5(6H)-one] | > 10000 nM | 1000 to 10000 nM | > 10000 nM | > 10000 nM | > 10000 nM |  |  |  |
| Cc1cn2cc(-c3cc4ccn(C5CCNCC5)c(=O)c4cn3)cc(F)c2n1 [Compound 1196] |  | < 100 nM | < 100 nM | 100 to 1000 nM | < 100 nM | < 100 nM |  |  |
| Cc1cn(C2CCNCC2)c(=O)c2ccc(-c3cc4cn(C)nc4c(F)c3O)nc12 [Compound 1285] | < 100 nM | < 100 nM | < 100 nM | < 100 nM | < 100 nM |  |  |  |
| Cc1cn2nc(-c3ccc4c(=O)n([C@H]5CCNC5)ccc4n3)cc(C)c2n1 [Compound 1437, 2-(2,8-dimethylimidazo[1,2-b]pyridazin-6-yl)-6-[(3S)-pyrrolidin-3-yl]-1,6-aphthyridin-5-one] | 100 to 1000 nM | 100 to 1000 nM | 100 to 1000 nM | 1000 to 10000 nM | 100 to 1000 nM |  |  |  |
| Cn1cc2cc(-c3ncc4c(=O)n(C5CCNCC5)ccc4n3)cc(F)c2n1 [Compound 1212, 2-(7-fluoro-2-methyl-2H-indazol-5-yl)-6-(piperidin-4-yl)pyrido[4,3-d]pyrimidin-5(6H)-one] |  | 100 to 1000 nM | < 100 nM | < 100 nM | < 100 nM | < 100 nM |  |  |
| Cn1cc2cc(-c3ccc4c(=O)n(C5CCNCC5)cnc4c3)ccc2n1 [Compound 182] |  | 100 to 1000 nM | 100 to 1000 nM | 1000 to 10000 nM | 100 to 1000 nM | 100 to 1000 nM |  |  |
| COc1c(-c2cc3ccn(C4CCNCC4)c(=O)c3cn2)cc2cn(C)nc2c1F [Compound 1219] |  | 1000 to 10000 nM | 1000 to 10000 nM | 1000 to 10000 nM | 100 to 1000 nM | 1000 to 10000 nM |  |  |
| Cc1cn2cc(-c3ncc4c(=O)n([C@@H]5CCNC6(CC6)C5)ccc4n3)cc(F)c2n1 [Compound 1457, 6-[(7R)-4-azaspiro[2.5]octan-7-yl]-2-(8-fluoro-2-methyl-imidazo[1,2-a]pyridin-6-yl)pyrido[4,3-d]pyrimidin-5-one] | 100 to 1000 nM | 100 to 1000 nM | 100 to 1000 nM | 100 to 1000 nM | 100 to 1000 nM |  |  |  |
| Cn1cc2nc(-c3ccc4c(=O)n(C5CCNCC5)ccc4n3)c(O)cc2n1 [Compound 1296] | < 100 nM | < 100 nM | < 100 nM | < 100 nM | < 100 nM |  |  |  |
| Cc1c(O)c(-c2ncc3c(=O)n([C@@H]4CC5CC4CN5)ccc3n2)cc2cn(C)nc12 (stereo in doubt) [Compound 1443, 6-[(1R,4R,5R)-2-azabicyclo[2.2.1]heptan-5-yl]-2-(6-hydroxy-2,7-dimethyl-indazol-5-yl)pyrido[4,3-d]pyrimidin-5-one] | 100 to 1000 nM | 100 to 1000 nM | 100 to 1000 nM | 1000 to 10000 nM | 100 to 1000 nM |  |  |  |
| Cn1cc2cc(-c3ccc4c(=O)n([C@@H]5CCNC5)ccc4n3)c(O)c(F)c2n1 [Compound 1452, 2-(7-fluoro-6-hydroxy-2-methyl-indazol-5-yl)-6-[(3R)-pyrrolidin-3-yl]-1,6-naphthyridin-5-one] | < 100 nM | 100 to 1000 nM | < 100 nM | 100 to 1000 nM | 100 to 1000 nM |  |  |  |
| Cc1cn2cc(-c3ccc4c(=O)n(C5CCNC5)ccc4n3)cc(F)c2n1 (centres unmarked) [Compound 1299] | 100 to 1000 nM | 1000 to 10000 nM | 100 to 1000 nM | > 10000 nM | 1000 to 10000 nM |  |  |  |
| Cc1c(O)c(-c2ncc3c(=O)n([C@H]4CCNC(C)(C)C4)ccc3n2)cc2cn(C)nc12 [Compound 1436] | < 100 nM | < 100 nM | < 100 nM | 100 to 1000 nM | < 100 nM |  |  |  |
| Cc1cn2cc(-c3ncc4c(=O)n(C5CCNCC5)ccc4n3)c(O)c(C)c2n1 [Compound 1225] |  | 100 to 1000 nM | 100 to 1000 nM | 100 to 1000 nM | 100 to 1000 nM | 100 to 1000 nM |  |  |
| Cc1cn2nc(-c3ccc4c(=O)n(C5CCN(C)CC5)ncc4n3)cc(C)c2n1 [Compound 1311] | 100 to 1000 nM | 100 to 1000 nM | 100 to 1000 nM |  |  |  | 100 to 1000 nM | 100 to 1000 nM |
| Cc1c(O)c(-c2ncc3c(=O)n(C4C[C@@H](C)N[C@H](C)C4)ccc3n2)cc2cn(C)nc12 (stereo partly drawn) [Compound 1454, 6-[(2R,6R)-2,6-dimethyl-4-piperidyl]-2-(6-hydroxy-2,7-dimethyl-indazol-5-yl)pyrido[4,3-d]pyrimidin-5-one] | 100 to 1000 nM | 100 to 1000 nM | 100 to 1000 nM | 100 to 1000 nM | 100 to 1000 nM |  |  |  |
| Cc1cn2cc(-c3ccc4c(=O)n(C5CCNCC5)ccc4n3)cc(C)c2n1 [Compound 1241, 2-(2,8-dimethylimidazo[1,2-a]pyridin-6-yl)-6-(piperidin-4-yl)-1,6-naphthyridin-5(6H)-one] | < 100 nM | < 100 nM | < 100 nM | < 100 nM | < 100 nM |  |  |  |
| Cc1cn2cc(-c3cc(F)c4c(=O)n([C@@H]5CNC[C@H]5F)ccc4c3)cc(F)c2n1 [Compound 1456] | 100 to 1000 nM | 100 to 1000 nM | 100 to 1000 nM | 1000 to 10000 nM | 1000 to 10000 nM |  |  |  |
| Cn1cc2cc(-c3ccc4c(=O)n([C@H]5CCNC5)ccc4n3)c(O)c(F)c2n1 [Compound 1451, 2-(7-fluoro-6-hydroxy-2-methyl-indazol-5-yl)-6-[(3S)-pyrrolidin-3-yl]-1,6-naphthyridin-5-one] | < 100 nM | 100 to 1000 nM | < 100 nM | 100 to 1000 nM | 100 to 1000 nM |  |  |  |
| Cc1c(O)c(-c2ncc3c(=O)n(C4C[C@H](C)N[C@@H](C)C4)ccc3n2)cc2cn(C)nc12 (stereo partly drawn) [Compound 1455, 6-[(2S,6S)-2,6-dimethyl-4-piperidyl]-2-(6-hydroxy-2,7-dimethyl-indazol-5-yl)pyrido[4,3-d]pyrimidin-5-one] | < 100 nM | < 100 nM | < 100 nM | 100 to 1000 nM | < 100 nM |  |  |  |
| Cc1c(O)c(-c2ncc3c(=O)n(C4CCC(N)CC4)ccc3n2)cc2cn(C)nc12 (centres unmarked) [Compound 1300, 6-((1s,4s)-4-aminocyclohexyl)-2-(6-hydroxy-2,7-dimethyl-2H-indazol-5-yl)pyrido[4,3-d]pyrimidin-5(6H)-one] | 100 to 1000 nM | 100 to 1000 nM | 100 to 1000 nM | 100 to 1000 nM | 100 to 1000 nM |  |  |  |
| Cc1c(O)c(-c2ncc3c(=O)n([C@@H]4C[C@H]5CC[C@@H](C4)N5)ccc3n2)cc2cn(C)nc12 [Compound 1429, 6-[(1S,5R)-8-azabicyclo[3.2.1]octan-3-yl]-2-(6-hydroxy-2,7-dimethyl-indazol-5-yl)pyrido[4,3-d]pyrimidin-5-one] | < 100 nM | < 100 nM | < 100 nM | 100 to 1000 nM | < 100 nM |  |  |  |
| Cn1cc2cc(-c3ccc4c(=O)n(C5CCNC6(CC6)C5)ccc4n3)c(O)cc2n1 (centres unmarked) [Compound 1242] | < 100 nM | < 100 nM | < 100 nM | < 100 nM | < 100 nM |  |  |  |
